In patent publication US20220152117A1, “METHODS OF PROMOTING CELLULAR MATURATION WITH AMPK ACTIVATORS” (UNIVERSITY OF WASHINGTON, priority 2019, published 2022):
Values joined by “and” are separate entries in the source; they are usually repeats but may differ in a detail not shown here. Identical values can stand only once.

Key:
Assay type in all cases: cell-based, human
hiPSC-derived neurons = assay: Quantitative RT-PCR gene expression in neurons
[1] = tested on: hiPSC-derived cardiomyocytes; assay: Contractile force assessment on micropost arrays; conditions: 1 mM AICAR for one week
Protocol: Contractile force was assessed using micropost arrays, following a procedure similar to previously reported studies on cardiomyocytes^2, 31, 32. The process used to fabricate the micropost arrays is described in detail elsewhere^33, 34. The microposts (6.45 μm in height, 2.3 μm in diameter, 6 μm center-to-center post spacing) were cast onto 25 mm diameter round #1 glass coverslips (VWR®). To enable cell attachment, the tips of these microposts were stamped with 50 μg/ml of mouse laminin (Life Technologies®) via microcontact printing, while the remaining surfaces of the micropost array were fluorescently stained with BSA conjugates with Alexa Fluor 594 and blocked with 0.2% Pluronic F-127 (in PBS)^34. Twenty days following differentiation, hiPSC-derived cardiomyocytes were seeded onto the micropost arrays in Attoflour chambers at a density of approximately 500,000 cells per chamber (˜100,000 cells/cm^2), in RPMI media supplemented with 5% fetal bovine serum. After 24 hours, the medium was replaced with serum-free RPMI-B27 plus insulin, which then was exchanged every other day. Beginning two days after seeding, half of the substrates were treated with 1 mM AICAR for one week. Prior to live imaging, the media was exchanged to Tyrode's buffer. Individual cardiomyocyte twitch forces were recorded under phase light using high-speed video microscopy in a live cell chamber at 37° C., as previously described^32. Only the contractile forces of single cardiomyocytes (no junctions with adjacent cells) with obvious beating activity were assessed. Post deflections were optically measured at approximately 100 frames/sec on a Nikon Ti-E™ upright microscope with a 60× water immersion objective. A custom-written MATLAB™ code was used to compare each time frame of the video to a reference fluorescent image taken at the base of the posts. Contractile forces were subsequently calculated by multiplying the deflection of each microposts by its bending stiffness: F=kδ (1) where F is the force at a single micropost, k is the post's bending stiffness (44.54 nN/μm for this study), and δ is the horizontal distance between the centroid of the post's tip and the centroid of the post's base. The total contractile force for each cardiomyocyte was calculated as the sum of the forces at each post beneath it. The passive tension, or baseline force, was defined as the contractile force when a cardiomyocyte was at rest, i.e. in between beats. The total twitch force was defined as the difference between the peak contractile force (achieved during a twitch) and the passive tension. Additionally, the average twitch force per post was analyzed in order to normalize the total twitch force by cell area. The average twitch force per post was calculated as the total twitch force divided by the number of posts underneath a cardiomyocyte. Passive tension, total twitch force, average twitch force per post, and beating frequency were used to compare the independent biological replicates (N=2, with 16-38 cells per independent biological replicate).

hPSC-CMs [2] = assay: Electron microscopy and point counting of relative mitochondrial volume; conditions: after AICAR treatment; control 0.068±0.006
Protocol: Adherent cells in tissue culture dishes were fixed for transmission electron microscopy in half-strength Karnovsky's fixative (2.0% paraformaldehyde, 2.5% glutaraldehyde, 0.1M phosphate buffer, pH 7.4) overnight. The cells were then washed in 0.1M phosphate buffer two times (5 minutes each) and post-fixed in 1.0% OsO4 in 0.1M phosphate buffer. Cells were rinsed twice (5 minutes each) then dehydrated in […], 70% and 90% alcohol, 2 minutes each, then in 100% alcohol twice (5 minutes each). Cells were embedded in Polybed 812 Resin™ (Ted Pella®, Redding, Calif.) by first infiltrating with a mixture of 50% alcohol/50% polybed for 1 hour and then pure polybed for 3 hours. Beem capsules filled with fresh resin were inverted over areas of cells. Polymerization procedure was performed for 24 hours at 65° C. Removal of beem capsules was achieved by placing plates in boiling water then gently peeling the capsule containing the polymerized resin and cells away from the plastic plate. Sections for light and transmission electron microscopy were cut using a Reichert Ultracut E Microtome™. […] The relative mitochondrial volume was calculated by point counting, in which 20 horizontal and 20 perpendicular lines were drawn in the images and the crosspoints that overlapped with mitochondria was counted and then divided by the total points.

control cardiomyocytes = assay: TUNEL cell viability assay, control cardiomyocytes from normal iPSCs; conditions: two weeks treatment, TUNEL with α-actinin co-stain
Protocol: The normal and mutant Plakophilin 2 (PKP2) cells were generated as described previously^37. Induced pluripotent cells were cultured with E8 medium in Matrigel® coated plates. Cardiomyocytes were obtained using a protocol based on Lian et al^38 that involves Wnt agonist CHIR 99021 in the early stages of differentiation followed by the Wnt antagonist IWP2 under monolayer condition. Before Day 7, cells were cultured in RPMI plus B27 without insulin while on Day 7 and afterwards, EB media (KO-DMEM with 2% FBS, 1 mM NEAAs, 1× GlutaMAX, 1 mM mercaptoethanol, and penicillin/streptomycin) was used. At 30 days of differentiation, beating EBs were treated with three factors (3F) (50 μg/ml insulin, 0.5 μM dexamethasone, and 0.25 mM IBMX) or five factors (5F) (3F plus PPAR-γ agonists 5 μM rosiglitazone and 200 μM indomethacin) media as described earlier or treated with 1 mM AICAR or AICAR plus rosiglitazone and indomethacin for two weeks. TUNEL staining with In Situ Cell Death Detection Kit TMR Red™ (Roche®) was used to assess cell viability after conducting different treatment. TUNEL staining was co-stained with anti-α-actinin antibody so that cardiomyocyte-specific apoptosis could be assessed.

hPSC-CMs [3] = assay: Western blotting with phospho-specific antibodies (pACC, pAMPK, pAkt, pERK, p-p38-MAPK)
Protocol: Total protein was acquired from control cardiomyocytes or cardiomyocytes after two weeks of AICAR treatment and subjected to SDS-PAGE. The lanes were loaded with equal amount of protein and were checked by Ponceau S staining. After blocking with 5% milk, the membranes were incubated with anti-pACC ([…]) rabbit polyclonal antibody (Cell Signaling Technology), anti-pAMPK, anti-pAkt, anti-pERK, anti-p38-MAPK, or anti-GAPDH mouse monoclonal antibody (Abcam) overnight while shaking at 4° C. After incubation with anti-rabbit (for pACC) and anti-mouse (for GAPDH, pAMPK, pAkt, pERK, and p-p38-MAPK) horseradish peroxidase-coupled secondary antibody (Santa Cruz Biotechnology®), bands were visualized with SuperSignal West Femto Trial KitTM (Thermo Scientific®). The immunoblots band densities were analyzed in Image J.

[4] = normalized to HPRT then to control cells

## NC(=O)c1ncn([C@@H]2O[C@H](CO)[C@@H](O)[C@H]2O)c1N [AICAR, 5-amino-4-imidazolecarboxamide riboside-1-β-D-ribofuranoside]
hiPSC-derived neurons; compared to control neurons
  NeuN mRNA in neurons: significant increase
hiPSC-derived neurons; [4]
  PPARα expression in neurons: increased
  TFAM expression in neurons: increased
hiPSC-derived neurons; two weeks of treatment with AICAR every third day
  PDK4 expression in neurons: increase
[1]; control 0.87±0.07
  beating frequency: 0.49±0.04 Hz
[1]; control 9.7±0.7
  twitch force: 14.1±1.6 nN/cell and ~14.1 nN/cell
[1]; control 82.68±4.35
  passive tension: 114.77±7.93 nN/cell
[1]; control 213±5
  cellular size on microposts: 260±11 μm^2
[1]; controls ~1.2
  average twitch force per post: ~1.4 nN/post
hPSC-CMs [2]
  mitochondrial volume fraction: 0.119±0.013
Control cardiomyocytes
  apoptosis in control cardiomyocytes: None of the treatment groups significantly leads to apoptosis
hPSC-CMs [3]; 1 mM AICAR, time course
  phopho-p38-MAPK: Transient increases
  phospho-ERK: Transient increases
  phospho-Thr172-AMPK phosphorylation: rapid robust transient
  phosphorylation of Akt at Ser473: increased
  phosphorylation of Ser79-ACC: rapid, time-dependent increase
hPSC-CMs [3]; two weeks of AICAR treatment, same exposure conditions
  phospho-ACC (Ser 79) level by immunoblot vs control cells: more than one thousand-fold increase
